Results reported in patent US12187746B2, “C26-linked rapamycin analogs as mTOR inhibitors” (Revolution Medicines, Inc., priority 2018, dated 2025).

What was measured:
[1] = system: P-Akt (S473); experiment: Cell based AlphaLISA assay, inhibition of P-Akt (S473) in MDA-MB-468 cells; settings: Homo sapiens, 4 h, 0.017-1,000 nM, two to four hours at 37° C., AlphaLisa SureFire Ultra, read-out: pIC50 for Inhibition of mTORC1 and mTORC2 Substrate Phosphorylation, p-AKT1/2/3-(S473) (converted)
Procedure: (§1) Cell Based AlphaLISA Assays For Determining IC50 For Inhibition of P-Akt (S473), P-4E-BP1 (T37/46), and P-P70S6K (T389) in MDA-MB-468 Cells
(§2) mTOR Kinase Cellular Assay
(§3) To measure functional activity of mTORC1 and mTORC2 in cells the phosphorylation of 4EBP1 (Thr37/46) and P70S6K (Thr389), and AKT1/2/3 (Ser473) was monitored using AlphaLisa SureFire Ultra Kits (Perkin Elmer). […] Incubations are terminated by removal of the assay buffer and addition of lysis buffer provided with the assay kit. Samples are processed according to the manufacturer's instructions. The Alpha signal from the respective phosphoproteins is measured in duplicate using a microplate reader (Envision, Perkin-Elmer or Spectramax M5, Molecular Devices). Inhibitor concentration response curves are analyzed using normalized IC50 regression curve fitting with control based normalization.

[2] = system: P-P70S6K (T389); experiment: Cell based AlphaLISA assay, inhibition of P-P70S6K (T389) in MDA-MB-468 cells; settings: Homo sapiens, 4 h, 0.017-1,000 nM, two to four hours at 37° C., AlphaLisa SureFire Ultra, read-out: pIC50 for Inhibition of mTORC1 and mTORC2 Substrate Phosphorylation, p-P70S6K-(T389) (converted)
Procedure: as §1, §2, §3

[3] = system: P-4E-BP1 (T37/46); experiment: Cell based AlphaLISA assay, inhibition of P-4E-BP1 (T37/46) in MDA-MB-468 cells; settings: Homo sapiens, 4 h, 0.017-1,000 nM, two to four hours at 37° C., AlphaLisa SureFire Ultra, read-out: pIC50 for Inhibition of mTORC1 and mTORC2 Substrate Phosphorylation, p-4E-BP1-(T37/46) (converted)
Procedure: as §1, §2, §3

SMILES: CO[C@H]1C[C@@H]2CC[C@@H](C)[C@@](O)(O2)C(=O)C(=O)N2CCCC[C@H]2C(=O)O[C@H]([C@H](C)C[C@@H]2CC[C@@H](O)[C@H](OC)C2)C[C@@H](O)[C@H](C)/C=C(\C)[C@@H](O)[C@@H](OC)C(=NOCC(=O)NCc2cnc(N3CCN(C(=O)CCOCCN4CCN(c5ncc(C(=O)N6CCC(n7nc(-c8ccc9oc(N)nc9c8)c8c(N)ncnc87)CC6)cn5)CC4)CC3)nc2)[C@H](C)C[C@H](C)/C=C/C=C/C=C/1C [Example 32]
- IC50 [1]: 3.16 to 31.6 nM
- IC50 [2]: < 1 nM
- IC50 [3]: 3.16 to 31.6 nM

SMILES: CO[C@H]1C[C@@H]2CC[C@@H](C)[C@@](O)(O2)C(=O)C(=O)N2CCCC[C@H]2C(=O)O[C@H]([C@H](C)C[C@@H]2CC[C@@H](O)[C@H](OC)C2)C[C@@H](O)[C@H](C)/C=C(\C)[C@@H](O)[C@@H](OC)C(=NOCC(=O)NCc2cnc(N3CCN(c4ncc(C(=O)NCCOCCC(=O)N5CCc6cc(Cn7nc(-c8ccc9oc(N)nc9c8)c8c(N)ncnc87)ccc6C5)cn4)[C@H](CN(C)C)C3)nc2)[C@H](C)C[C@H](C)/C=C/C=C/C=C/1C [Example 49]
- IC50 [1]: > 1000 nM
- IC50 [2]: 1 to 10 nM
- IC50 [3]: 3.16 to 31.6 nM

SMILES: CO[C@H]1C[C@@H]2CC[C@@H](C)[C@@](O)(O2)C(=O)C(=O)N2CCCC[C@H]2C(=O)O[C@H]([C@H](C)C[C@@H]2CC[C@@H](O)[C@H](OC)C2)C[C@@H](O)[C@H](C)/C=C(\C)[C@@H](O)[C@@H](OC)C(=NOCC(=O)NCc2cnc(N3CCN(C(=O)CCCN4CCN(c5ncc(C(=O)N6CCC(n7nc(-c8ccc9oc(N)nc9c8)c8c(N)ncnc87)CC6)cn5)CC4)CC3)nc2)[C@H](C)C[C@H](C)/C=C/C=C/C=C/1C [Example 66]
- IC50 [1]: > 1000 nM
- IC50 [2]: 1 to 10 nM
- IC50 [3]: > 1000 nM

SMILES: CO[C@H]1C[C@@H]2CC[C@@H](C)[C@@](O)(O2)C(=O)C(=O)N2CCCC[C@H]2C(=O)O[C@H]([C@H](C)C[C@@H]2CC[C@@H](O)[C@H](OC)C2)C[C@@H](O)[C@H](C)/C=C(\C)[C@@H](O)[C@@H](OC)C(=NOCC(=O)NCc2cnc(N3CCN(C(=O)CCOCCN4CCC(N5CCC(C(=O)N6CCc7cc(Cn8nc(-c9ccc%10oc(N)nc%10c9)c9c(N)ncnc98)ccc7C6)CC5)CC4)CC3)nc2)[C@H](C)C[C@H](C)/C=C/C=C/C=C/1C [Example 63]
- IC50 [1]: > 1000 nM
- IC50 [2]: < 1 nM
- IC50 [3]: 3.16 to 31.6 nM

SMILES: CO[C@H]1C[C@@H]2CC[C@@H](C)[C@@](O)(O2)C(=O)C(=O)N2CCCC[C@H]2C(=O)O[C@H]([C@H](C)C[C@@H]2CC[C@@H](O)[C@H](OC)C2)C[C@@H](O)[C@H](C)/C=C(\C)[C@@H](O)[C@@H](OC)C(=NOCC(=O)NCCOCCOCCOCCOCCOCCOCCOCCOCCC(=O)N2CCc3cc(Cn4nc(-c5cnc6[nH]ccc6c5)c5c(N)ncnc54)ccc3C2)[C@H](C)C[C@H](C)/C=C/C=C/C=C/1C [Example 9]
- IC50 [1]: > 1000 nM
- IC50 [2]: 1 to 10 nM
- IC50 [3]: 3.16 to 31.6 nM

SMILES: CC(C)n1nc(-c2ccc3oc(N)nc3c2)c2c(N)ncnc21 [MLN-128, MLN0128, reference compound]
- IC50 [1]: 3.16 to 31.6 nM
- IC50 [2]: 1 to 10 nM
- IC50 [3]: 3.16 to 31.6 nM

SMILES: CO[C@H]1C[C@@H]2CC[C@@H](C)[C@@](O)(O2)C(=O)C(=O)N2CCCC[C@H]2C(=O)O[C@H]([C@H](C)C[C@@H]2CC[C@@H](O)[C@H](OC)C2)C[C@@H](O)[C@H](C)/C=C(\C)[C@@H](O)[C@@H](OC)C(=NOCC(=O)NCc2cnc(N3CCN(C(=O)CN(C)CC(=O)NCCOCCOCCC(=O)NCCCCn4nc(-c5ccc6oc(N)nc6c5)c5c(N)ncnc54)CC3)nc2)[C@H](C)C[C@H](C)/C=C/C=C/C=C/1C [Example 24]
- IC50 [1]: 31.6 to 1000 nM
- IC50 [2]: 1 to 10 nM
- IC50 [3]: 31.6 to 1000 nM

SMILES: COc1ccc(-c2ccc3ncc4c(c3c2)n(-c2ccc(N3CCN(c5ncc6c(n5)CCN(C(=O)c5cnc(N7CCN(CCOCCC(=O)N8CCN(c9ncc(CNC(=O)CON=C%10[C@H](C)C[C@H](C)/C=C/C=C/C=C(\C)[C@@H](OC)C[C@@H]%11CC[C@@H](C)[C@@](O)(O%11)C(=O)C(=O)N%11CCCC[C@H]%11C(=O)O[C@H]([C@H](C)C[C@@H]%11CC[C@@H](O)[C@H](OC)C%11)C[C@@H](O)[C@H](C)/C=C(\C)[C@@H](O)[C@H]%10OC)cn9)CC8)CC7)nc5)C6)CC3)c(C(F)(F)F)c2)c(=O)n4C)cn1 [Example 33]
- IC50 [1]: > 1000 nM
- IC50 [2]: 10 to 1000 nM
- IC50 [3]: > 1000 nM

SMILES: CO[C@H]1C[C@@H]2CC[C@@H](C)[C@@](O)(O2)C(=O)C(=O)N2CCCC[C@H]2C(=O)O[C@H]([C@H](C)C[C@@H]2CC[C@@H](O)[C@H](OC)C2)C[C@@H](O)[C@H](C)/C=C(\C)[C@@H](O)[C@@H](OC)C(=NOCC(=O)NCCOCCC(=O)NCc2cnc(N3CCN(C(=O)CCOCCN4CCN(c5ncc(C(=O)NCCCCn6nc(-c7cnc8[nH]ccc8c7)c7c(N)ncnc76)cn5)CC4)CC3)nc2)[C@H](C)C[C@H](C)/C=C/C=C/C=C/1C [Example 42]
- IC50 [1]: > 1000 nM
- IC50 [2]: 1 to 10 nM
- IC50 [3]: 3.16 to 31.6 nM

SMILES: CO[C@H]1C[C@@H]2CC[C@@H](C)[C@@](O)(O2)C(=O)C(=O)N2CCCC[C@H]2C(=O)O[C@H]([C@H](C)C[C@@H]2CC[C@@H](O)[C@H](OC)C2)C[C@@H](O)[C@H](C)/C=C(\C)[C@@H](O)[C@@H](OC)C(=NOCC(=O)NCc2cnc(N3CCN(C(=O)CCOCCN4CCN(c5ncc(C(=O)N6CCc7cc(Cn8nc(-c9cnc%10[nH]ccc%10c9)c9c(N)ncnc98)ccc7C6)cn5)CC4)CC3)nc2)[C@H](C)C[C@H](C)/C=C/C=C/C=C/1C [Example 31]
- IC50 [1]: > 1000 nM
- IC50 [2]: < 1 nM
- IC50 [3]: 3.16 to 31.6 nM

SMILES: CO[C@H]1C[C@@H]2CC[C@@H](C)[C@@](O)(O2)C(=O)C(=O)N2CCCC[C@H]2C(=O)O[C@H]([C@H](C)C[C@@H]2CC[C@@H](O)[C@H](OC)C2)C[C@@H](O)[C@H](C)/C=C(\C)[C@@H](O)[C@@H](OC)C(=NOCC(=O)NCCOCCOCCOCCOCCOCCOCCC(=O)NC2CCN(CC(=O)N3CCc4cc(Cn5nc(-c6ccc7oc(N)nc7c6)c6c(N)ncnc65)ccc4C3)CC2)[C@H](C)C[C@H](C)/C=C/C=C/C=C/1C [Example 69]
- IC50 [1]: > 1000 nM
- IC50 [2]: 1 to 10 nM
- IC50 [3]: 3.16 to 31.6 nM

SMILES: CO[C@H]1C[C@@H]2CC[C@@H](C)[C@@](O)(O2)C(=O)C(=O)N2CCCC[C@H]2C(=O)O[C@H]([C@H](C)C[C@@H]2CC[C@@H](O)[C@H](OC)C2)C[C@@H](O)[C@H](C)/C=C(\C)[C@@H](O)[C@@H](OC)C(=NOCC(=O)NCCOCCOCCOCCOCCOCCOCCOCCOCCC(=O)N2CCc3cc(Cn4nc(-c5ccc6oc(N)nc6c5)c5c(N)ncnc54)ccc3C2)[C@H](C)C[C@H](C)/C=C/C=C/C=C/1C [Example 4]
- IC50 [1]: 31.6 to 1000 nM
- IC50 [2]: < 1 nM
- IC50 [3]: 3.16 to 31.6 nM

SMILES: CO[C@H]1C[C@@H]2CC[C@@H](C)[C@@](O)(O2)C(=O)C(=O)N2CCCC[C@H]2C(=O)O[C@H]([C@H](C)C[C@@H]2CC[C@@H](O)[C@H](OC)C2)C[C@@H](O)[C@H](C)/C=C(\C)[C@@H](O)[C@@H](OC)/C(=N/OCC(=O)NCCOCCOCCOCCOCCOCCOCCC(=O)NCCCCn2nc(-c3ccc4oc(N)nc4c3)c3c(N)ncnc32)[C@H](C)C[C@H](C)/C=C/C=C/C=C/1C [Example 3]
- IC50 [1]: 31.6 to 1000 nM
- IC50 [2]: < 1 nM
- IC50 [3]: 3.16 to 31.6 nM

SMILES: CO[C@H]1C[C@@H]2CC[C@@H](C)[C@@](O)(O2)C(=O)C(=O)N2CCCC[C@H]2C(=O)O[C@H]([C@H](C)C[C@@H]2CC[C@@H](O)[C@H](OC)C2)C[C@@H](OC)[C@H](C)/C=C(\C)[C@@H](O)[C@@H](OC)C(=NOCC(=O)NCCOCCOCCOCCOCCOCCOCCOCCOCCC(=O)NCCCCn2nc(-c3cnc4[nH]ccc4c3)c3c(N)ncnc32)[C@H](C)C[C@H](C)/C=C/C=C/C=C/1C [Example 8]
- IC50 [1]: > 1000 nM
- IC50 [2]: < 1 nM
- IC50 [3]: 3.16 to 31.6 nM

SMILES: CO[C@H]1C[C@@H]2CC[C@@H](C)[C@@](O)(O2)C(=O)C(=O)N2CCCC[C@H]2C(=O)O[C@H]([C@H](C)C[C@@H]2CC[C@@H](O)[C@H](OC)C2)C[C@@H](O)[C@H](C)/C=C(\C)[C@@H](O)[C@@H](OC)C(=NOCC(=O)N2CCc3nc(N4CCN(c5ncc(C(=O)NCCOCCC(=O)NCCCCn6nc(-c7ccc8oc(N)nc8c7)c7c(N)ncnc76)cn5)CC4)ncc3C2)[C@H](C)C[C@H](C)/C=C/C=C/C=C/1C [Example 17]
- IC50 [1]: > 1000 nM
- IC50 [2]: 1 to 10 nM
- IC50 [3]: 3.16 to 31.6 nM

SMILES: CO[C@H]1C[C@@H]2CC[C@@H](C)[C@@](O)(O2)C(=O)C(=O)N2CCCC[C@H]2C(=O)O[C@H]([C@H](C)C[C@@H]2CC[C@@H](O)[C@H](OC)C2)C[C@@H](O)[C@H](C)/C=C(\C)[C@@H](O)[C@@H](OC)C(=NOCC(=O)N2CCc3nc(N4CCN(c5ncc(C(=O)NCCOCCOCCOCCC(=O)N6CCc7cc(Cn8nc(-c9cnc%10[nH]ccc%10c9)c9c(N)ncnc98)ccc7C6)cn5)CC4)ncc3C2)[C@H](C)C[C@H](C)/C=C/C=C/C=C/1C [Example 19]
- IC50 [1]: > 1000 nM
- IC50 [2]: 1 to 10 nM
- IC50 [3]: 3.16 to 31.6 nM
